# Test results published in ChEMBL document CHEMBL6114946, “Development and characterization of pyridyl carboxamides as potent and highly selective Nav1.8 inhibitors” (Bioorg Med Chem Lett, 2025).
# Activity calls are given as the source filed them. The calls are words filed in the database; no cut-off is given here.
# Target: T1, Sodium channel protein type 10 subunit alpha (Homo sapiens, UniProt Q9Y5Y9)
# Test: Inhibition of human Nav1.8 with resting membrane potential at half inactivated state by PatchXpress high-throughput electrophysiology method
# Settings: not given
# Target sequence in this assay (Q9Y5Y9 whole entry): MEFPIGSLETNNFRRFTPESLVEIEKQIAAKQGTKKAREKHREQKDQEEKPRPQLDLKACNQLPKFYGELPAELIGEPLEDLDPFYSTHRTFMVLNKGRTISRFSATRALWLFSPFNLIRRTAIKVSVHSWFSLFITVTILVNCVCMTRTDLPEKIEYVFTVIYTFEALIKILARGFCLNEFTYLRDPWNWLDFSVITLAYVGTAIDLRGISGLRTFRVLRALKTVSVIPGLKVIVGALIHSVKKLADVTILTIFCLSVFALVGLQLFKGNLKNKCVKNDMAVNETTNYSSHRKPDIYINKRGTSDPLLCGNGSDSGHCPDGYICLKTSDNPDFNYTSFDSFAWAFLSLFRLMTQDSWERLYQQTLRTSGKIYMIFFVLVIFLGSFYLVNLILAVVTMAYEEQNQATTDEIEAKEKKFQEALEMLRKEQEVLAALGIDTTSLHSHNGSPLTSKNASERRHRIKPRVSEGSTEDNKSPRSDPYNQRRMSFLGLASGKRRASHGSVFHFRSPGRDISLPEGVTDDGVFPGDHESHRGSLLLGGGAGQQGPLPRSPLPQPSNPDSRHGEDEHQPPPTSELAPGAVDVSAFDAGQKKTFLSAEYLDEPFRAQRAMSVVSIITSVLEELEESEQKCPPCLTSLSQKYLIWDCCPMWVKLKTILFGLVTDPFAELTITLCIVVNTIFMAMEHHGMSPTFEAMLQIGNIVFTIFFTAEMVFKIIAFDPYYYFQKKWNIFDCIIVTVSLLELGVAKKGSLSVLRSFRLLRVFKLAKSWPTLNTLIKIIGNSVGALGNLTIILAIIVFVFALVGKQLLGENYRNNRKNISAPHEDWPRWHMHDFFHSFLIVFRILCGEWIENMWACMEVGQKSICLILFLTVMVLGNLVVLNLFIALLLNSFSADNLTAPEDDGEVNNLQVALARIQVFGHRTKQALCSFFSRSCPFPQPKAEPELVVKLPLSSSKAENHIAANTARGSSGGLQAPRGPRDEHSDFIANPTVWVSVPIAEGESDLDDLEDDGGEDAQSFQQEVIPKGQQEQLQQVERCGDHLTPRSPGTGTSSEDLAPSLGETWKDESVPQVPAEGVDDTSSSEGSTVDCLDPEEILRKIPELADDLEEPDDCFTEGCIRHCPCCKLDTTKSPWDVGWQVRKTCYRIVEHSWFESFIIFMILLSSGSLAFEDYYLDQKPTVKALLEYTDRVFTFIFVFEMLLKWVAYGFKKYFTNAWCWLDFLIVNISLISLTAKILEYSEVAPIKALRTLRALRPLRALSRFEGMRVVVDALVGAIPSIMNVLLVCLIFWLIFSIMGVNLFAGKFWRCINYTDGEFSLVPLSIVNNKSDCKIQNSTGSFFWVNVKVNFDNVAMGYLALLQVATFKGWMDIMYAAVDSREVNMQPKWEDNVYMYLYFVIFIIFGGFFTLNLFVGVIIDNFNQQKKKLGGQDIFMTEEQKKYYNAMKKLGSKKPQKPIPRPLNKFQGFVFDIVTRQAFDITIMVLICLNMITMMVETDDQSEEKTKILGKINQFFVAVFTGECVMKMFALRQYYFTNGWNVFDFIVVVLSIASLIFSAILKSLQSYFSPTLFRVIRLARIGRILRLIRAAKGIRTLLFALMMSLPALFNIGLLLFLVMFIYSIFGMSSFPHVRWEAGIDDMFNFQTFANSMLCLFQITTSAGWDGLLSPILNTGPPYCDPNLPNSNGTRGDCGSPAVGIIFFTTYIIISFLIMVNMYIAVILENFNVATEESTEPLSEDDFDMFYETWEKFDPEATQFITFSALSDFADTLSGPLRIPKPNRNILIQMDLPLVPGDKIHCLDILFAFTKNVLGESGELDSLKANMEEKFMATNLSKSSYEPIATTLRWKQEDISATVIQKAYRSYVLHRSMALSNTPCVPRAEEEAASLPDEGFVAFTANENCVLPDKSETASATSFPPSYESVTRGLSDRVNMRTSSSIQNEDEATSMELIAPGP
row,IC50 [nM],Structure (SMILES)
1,> 10000,COc1cc(F)ccc1Oc1ncc(C(F)(F)F)cc1C(=O)NCc1cccnc1N1CCOCC1
2,12,CS(=N)(=O)c1cccc(NC(=O)c2cc(C(F)(F)F)cnc2Oc2ccc(F)cc2Cl)c1 (stereo not given)

# Further lines, the compound ahead of its results:
row,Structure (SMILES),IC50 [nM]
1,COc1cc(F)ccc1Oc1ncc(C(F)(F)F)cc1C(=O)NCCN(C)C,> 10000
2,Cc1cc(OC(F)(F)F)ccc1Oc1ncc(C(F)(F)F)cc1C(=O)Nc1cccc(S(C)(=O)=O)c1,35

# Target: T1, Sodium channel protein type 10 subunit alpha
# Test: Inhibition of Nav1.8 (unknown origin) at 10 uM by Ionflux high-throughput automated patch method
# Settings: not given
# Target sequence in this assay (Q9Y5Y9 whole entry, looked up): as the sequence (Q9Y5Y9 whole entry) above
row,inhibition,Structure (SMILES)
1,inactive,COc1cc(F)ccc1Oc1ncc(C(F)(F)F)cc1C(=O)NCc1cccnc1N1CCOCC1
2,Active,CS(=N)(=O)c1cccc(NC(=O)c2cc(C(F)(F)F)cnc2Oc2ccc(F)cc2Cl)c1 (stereo not given)

# The remaining lines, values behind:
row,Structure (SMILES),inhibition
1,COc1cc(F)ccc1Oc1ncc(C(F)(F)F)cc1C(=O)NCCN(C)C,inactive
2,Cc1cc(OC(F)(F)F)ccc1Oc1ncc(C(F)(F)F)cc1C(=O)Nc1cccc(S(C)(=O)=O)c1,Active

# Tested on: not listed separately
# Test: Kinetic solubility of the compound in pH 7.4 phosphate buffered saline measured after 2 hrs by LC/MS analysis
# Type: physicochemical
# Settings: read-out: Kinetic_solubility
row,solubility kinetic at 2 h [µg/mL],Structure (SMILES)
1,1.4,Cc1cc(OC(F)(F)F)ccc1Oc1ncc(C(F)(F)F)cc1C(=O)Nc1cccc(S(C)(=O)=O)c1
2,26,CS(=N)(=O)c1cccc(NC(=O)c2cc(C(F)(F)F)cnc2Oc2ccc(F)cc2Cl)c1 (stereo not given)

# Tested on: not listed separately
# Test: Clearance in rat at 1 mg/kg
# Type: ADME, organism-based
# Settings: in vivo
row,clearance [mL/min/kg],Structure (SMILES)
1,5.9,CS(=N)(=O)c1cccc(NC(=O)c2cc(C(F)(F)F)cnc2Oc2ccc(F)cc2Cl)c1 (stereo not given)

# Tested on: not listed separately
# Test: Oral bioavailability in rat at 10 mg/kg
# Type: ADME, organism-based
# Settings: in vivo
row,bioavailability [%],Structure (SMILES)
1,86,CS(=N)(=O)c1cccc(NC(=O)c2cc(C(F)(F)F)cnc2Oc2ccc(F)cc2Cl)c1 (stereo not given)

# Target: Sodium channel protein type 10 subunit alpha (Mus musculus, UniProt Q6QIY3)
# Test: Inhibition of mouse Nav1.8 with resting membrane potential at half inactivated state by PatchXpress high-throughput electrophysiology method
# Settings: not given
row,IC50 [nM],Structure (SMILES)
1,660,CS(=N)(=O)c1cccc(NC(=O)c2cc(C(F)(F)F)cnc2Oc2ccc(F)cc2Cl)c1 (stereo not given)

# Target: Voltage-gated inwardly rectifying potassium channel KCNH2 (Homo sapiens, UniProt Q12809)
# Test: Inhibition of human ERG
# Type: toxicity
# Settings: not given
# Sequence of Voltage-gated inwardly rectifying potassium channel KCNH2 (Q12809 whole entry): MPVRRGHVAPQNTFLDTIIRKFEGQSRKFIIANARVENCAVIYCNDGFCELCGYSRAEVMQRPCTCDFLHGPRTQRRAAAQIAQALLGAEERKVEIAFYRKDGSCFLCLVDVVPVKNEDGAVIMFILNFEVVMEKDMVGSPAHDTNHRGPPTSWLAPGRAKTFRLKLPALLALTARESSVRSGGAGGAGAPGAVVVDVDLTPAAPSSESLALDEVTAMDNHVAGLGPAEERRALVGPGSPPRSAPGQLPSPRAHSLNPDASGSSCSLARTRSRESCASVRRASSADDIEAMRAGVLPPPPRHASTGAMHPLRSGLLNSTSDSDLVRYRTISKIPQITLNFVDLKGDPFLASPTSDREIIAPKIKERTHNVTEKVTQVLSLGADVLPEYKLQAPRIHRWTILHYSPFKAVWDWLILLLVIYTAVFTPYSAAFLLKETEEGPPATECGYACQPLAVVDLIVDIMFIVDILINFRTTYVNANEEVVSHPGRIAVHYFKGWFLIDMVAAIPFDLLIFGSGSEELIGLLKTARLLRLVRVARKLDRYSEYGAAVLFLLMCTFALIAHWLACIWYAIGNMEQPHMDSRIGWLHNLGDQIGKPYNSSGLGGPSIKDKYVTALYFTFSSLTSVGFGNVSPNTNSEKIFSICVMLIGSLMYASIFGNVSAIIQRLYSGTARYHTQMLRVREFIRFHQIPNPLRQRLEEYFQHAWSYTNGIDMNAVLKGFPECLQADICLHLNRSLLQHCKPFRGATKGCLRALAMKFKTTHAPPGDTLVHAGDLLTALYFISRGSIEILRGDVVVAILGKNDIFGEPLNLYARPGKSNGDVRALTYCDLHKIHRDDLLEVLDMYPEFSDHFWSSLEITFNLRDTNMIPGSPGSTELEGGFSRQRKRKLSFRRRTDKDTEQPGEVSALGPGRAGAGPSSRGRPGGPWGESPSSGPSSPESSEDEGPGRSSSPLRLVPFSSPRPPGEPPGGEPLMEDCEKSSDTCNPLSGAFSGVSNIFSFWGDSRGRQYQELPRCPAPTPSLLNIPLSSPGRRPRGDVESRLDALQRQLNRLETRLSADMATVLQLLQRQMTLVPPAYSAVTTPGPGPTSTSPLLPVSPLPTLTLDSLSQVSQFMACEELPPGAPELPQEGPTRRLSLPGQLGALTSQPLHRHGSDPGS
row,Structure (SMILES),IC50 [nM]
1,CS(=N)(=O)c1cccc(NC(=O)c2cc(C(F)(F)F)cnc2Oc2ccc(F)cc2Cl)c1 (stereo not given),> 30000

# Tested on: not listed separately
# Test: Protein binding in human plasma assessed as unbound fraction
# Type: ADME, cell-free
# Settings: not given
row,fraction unbound,Structure (SMILES)
1,0.073,CS(=N)(=O)c1cccc(NC(=O)c2cc(C(F)(F)F)cnc2Oc2ccc(F)cc2Cl)c1 (stereo not given)

# Tested on: not listed separately
# Test: Stability in human liver microsomes assessed as parent compound remaining measured after 60 mins
# Type: ADME, Microsome
# Settings: read-out: Stability
row,remaining at 1 h [%],Structure (SMILES)
1,> 95,CS(=N)(=O)c1cccc(NC(=O)c2cc(C(F)(F)F)cnc2Oc2ccc(F)cc2Cl)c1 (stereo not given)

# Target: Cytochrome P450 3A4 (Homo sapiens, UniProt P08684)
# Test: Inhibition of CYP3A4 (unknown origin)
# Type: ADME
# Settings: not given
row,INH [µM],Structure (SMILES)
1,> 30,CS(=N)(=O)c1cccc(NC(=O)c2cc(C(F)(F)F)cnc2Oc2ccc(F)cc2Cl)c1 (stereo not given)

# Target: T2, Cytochrome P450 1A2 (Homo sapiens, UniProt P05177)
# T2 sequence (P05177 whole entry): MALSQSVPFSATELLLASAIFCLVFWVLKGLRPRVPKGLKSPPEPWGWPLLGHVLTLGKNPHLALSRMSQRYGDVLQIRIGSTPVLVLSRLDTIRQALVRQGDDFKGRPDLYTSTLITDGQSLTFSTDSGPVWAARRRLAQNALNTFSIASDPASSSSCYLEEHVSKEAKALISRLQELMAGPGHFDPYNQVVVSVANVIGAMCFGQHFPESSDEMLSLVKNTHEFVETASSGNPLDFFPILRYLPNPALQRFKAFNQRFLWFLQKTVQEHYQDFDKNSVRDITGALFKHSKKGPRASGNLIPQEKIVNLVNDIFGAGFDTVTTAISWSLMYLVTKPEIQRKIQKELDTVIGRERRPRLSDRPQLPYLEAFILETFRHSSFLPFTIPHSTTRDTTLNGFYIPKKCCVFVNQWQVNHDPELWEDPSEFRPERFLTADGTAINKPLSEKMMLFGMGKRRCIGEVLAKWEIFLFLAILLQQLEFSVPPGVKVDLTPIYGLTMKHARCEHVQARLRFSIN
# Test: Inhibition of CYP1A2 (unknown origin)
# Type: ADME
# Settings: not given
row,INH [µM],Structure (SMILES)
1,> 30,CS(=N)(=O)c1cccc(NC(=O)c2cc(C(F)(F)F)cnc2Oc2ccc(F)cc2Cl)c1 (stereo not given)

# Tested on: not listed separately
# Test: Apparent permeability in MDCK-MDR1 cells
# Type: ADME, cell-based, Canis lupus familiaris
# Settings: dog
row,Papp [×10⁻⁶ cm/s],Structure (SMILES)
1,15.5,CS(=N)(=O)c1cccc(NC(=O)c2cc(C(F)(F)F)cnc2Oc2ccc(F)cc2Cl)c1 (stereo not given)

# Tested on: not listed separately
# Test: Efflux ratio of apparent permeability in MDCK-MDR1 cells
# Type: ADME, cell-based, Canis lupus familiaris
# Settings: dog
row,efflux ratio,Structure (SMILES)
1,0.8,CS(=N)(=O)c1cccc(NC(=O)c2cc(C(F)(F)F)cnc2Oc2ccc(F)cc2Cl)c1 (stereo not given)

# Tested on: not listed separately
# Test: Clearance in dog at 1 mg/kg
# Type: ADME, organism-based, Canis lupus familiaris
# Settings: in vivo
row,clearance [mL/min/kg],Structure (SMILES)
1,3.6,CS(=N)(=O)c1cccc(NC(=O)c2cc(C(F)(F)F)cnc2Oc2ccc(F)cc2Cl)c1 (stereo not given)

# Tested on: not listed separately
# Test: Clearance in cynomolgus monkey at 1 mg/kg
# Type: ADME, organism-based, Macaca fascicularis
# Settings: in vivo
row,clearance [mL/min/kg],Structure (SMILES)
1,2.5,CS(=N)(=O)c1cccc(NC(=O)c2cc(C(F)(F)F)cnc2Oc2ccc(F)cc2Cl)c1 (stereo not given)

# Tested on: not listed separately
# Test: Oral bioavailability in dog at 10 mg/kg
# Type: ADME, organism-based, Canis lupus familiaris
# Settings: in vivo
row,bioavailability [%],Structure (SMILES)
1,61,CS(=N)(=O)c1cccc(NC(=O)c2cc(C(F)(F)F)cnc2Oc2ccc(F)cc2Cl)c1 (stereo not given)

# Tested on: not listed separately
# Test: Oral bioavailability in cynomolgus monkey at 10 mg/kg
# Type: ADME, organism-based, Macaca fascicularis
# Settings: in vivo
row,bioavailability [%],Structure (SMILES)
1,98,CS(=N)(=O)c1cccc(NC(=O)c2cc(C(F)(F)F)cnc2Oc2ccc(F)cc2Cl)c1 (stereo not given)

# Tested on: not listed separately
# Test: Volume of distribution at steady state in rat at 1 mg/kg, iv
# Type: ADME, organism-based
# Settings: in vivo, read-out: Vdss
row,Vd [L/kg],Structure (SMILES)
1,1.9,CS(=N)(=O)c1cccc(NC(=O)c2cc(C(F)(F)F)cnc2Oc2ccc(F)cc2Cl)c1 (stereo not given)

# Tested on: not listed separately
# Test: Volume of distribution at steady state in dog at 1 mg/kg, iv
# Type: ADME, organism-based, Canis lupus familiaris
# Settings: in vivo, read-out: Vdss
row,Vd [L/kg],Structure (SMILES)
1,2,CS(=N)(=O)c1cccc(NC(=O)c2cc(C(F)(F)F)cnc2Oc2ccc(F)cc2Cl)c1 (stereo not given)

# Tested on: not listed separately
# Test: Volume of distribution at steady state in cynomolgus monkey at 1 mg/kg, iv
# Type: ADME, organism-based, Macaca fascicularis
# Settings: in vivo, read-out: Vdss
row,Vd [L/kg],Structure (SMILES)
1,2.9,CS(=N)(=O)c1cccc(NC(=O)c2cc(C(F)(F)F)cnc2Oc2ccc(F)cc2Cl)c1 (stereo not given)

# Tested on: not listed separately
# Test: Ratio of drug level in rat brain to plasma at 1 mg/kg, iv measured after 60 mins
# Type: ADME, organism-based
# Settings: read-out: BPR
row,Kp at 1 h,Structure (SMILES)
1,0.89,CS(=N)(=O)c1cccc(NC(=O)c2cc(C(F)(F)F)cnc2Oc2ccc(F)cc2Cl)c1 (stereo not given)

# Tested on: not listed separately
# Test: Genotoxicity in Salmonella typhimurium by Ames test
# Type: toxicity
# Settings: salmonella enterica subsp. enterica serovar typhimurium
row,Structure (SMILES),Activity
1,Nc1ccc[n+]([O-])c1,Non-toxic

# Target: Nav1.1 (sodium channel protein type 1 subunit alpha) (Homo sapiens, UniProt P35498)
# Test: Inhibition of Nav1.1 (unknown origin) at 30 uM relative to control
# Type: toxicity
# Settings: not given
row,Structure (SMILES),inhibition at 30 µM [%]
1,CS(=N)(=O)c1cccc(NC(=O)c2cc(C(F)(F)F)cnc2Oc2ccc(F)cc2Cl)c1 (stereo not given),< 25

# Target: Nav1.2 (sodium channel protein type 2 subunit alpha) (Homo sapiens, UniProt Q99250)
# Test: Inhibition of Nav1.2 (unknown origin) at 30 uM relative to control
# Type: toxicity
# Settings: not given
row,Structure (SMILES),inhibition at 30 µM [%]
1,CS(=N)(=O)c1cccc(NC(=O)c2cc(C(F)(F)F)cnc2Oc2ccc(F)cc2Cl)c1 (stereo not given),< 25

# Target: Nav1.3 (sodium channel protein type 3 subunit alpha) (Homo sapiens, UniProt Q9NY46)
# Test: Inhibition of Nav1.3 (unknown origin) at 30 uM relative to control
# Type: toxicity
# Settings: not given
row,Structure (SMILES),inhibition at 30 µM [%]
1,CS(=N)(=O)c1cccc(NC(=O)c2cc(C(F)(F)F)cnc2Oc2ccc(F)cc2Cl)c1 (stereo not given),< 25

# Target: Nav1.4 (sodium channel protein type 4 subunit alpha) (Homo sapiens, UniProt P35499)
# Test: Inhibition of Nav1.4 (unknown origin) at 30 uM relative to control
# Type: toxicity
# Settings: not given
# Sequence of Nav1.4 (sodium channel protein type 4 subunit alpha) (P35499 whole entry): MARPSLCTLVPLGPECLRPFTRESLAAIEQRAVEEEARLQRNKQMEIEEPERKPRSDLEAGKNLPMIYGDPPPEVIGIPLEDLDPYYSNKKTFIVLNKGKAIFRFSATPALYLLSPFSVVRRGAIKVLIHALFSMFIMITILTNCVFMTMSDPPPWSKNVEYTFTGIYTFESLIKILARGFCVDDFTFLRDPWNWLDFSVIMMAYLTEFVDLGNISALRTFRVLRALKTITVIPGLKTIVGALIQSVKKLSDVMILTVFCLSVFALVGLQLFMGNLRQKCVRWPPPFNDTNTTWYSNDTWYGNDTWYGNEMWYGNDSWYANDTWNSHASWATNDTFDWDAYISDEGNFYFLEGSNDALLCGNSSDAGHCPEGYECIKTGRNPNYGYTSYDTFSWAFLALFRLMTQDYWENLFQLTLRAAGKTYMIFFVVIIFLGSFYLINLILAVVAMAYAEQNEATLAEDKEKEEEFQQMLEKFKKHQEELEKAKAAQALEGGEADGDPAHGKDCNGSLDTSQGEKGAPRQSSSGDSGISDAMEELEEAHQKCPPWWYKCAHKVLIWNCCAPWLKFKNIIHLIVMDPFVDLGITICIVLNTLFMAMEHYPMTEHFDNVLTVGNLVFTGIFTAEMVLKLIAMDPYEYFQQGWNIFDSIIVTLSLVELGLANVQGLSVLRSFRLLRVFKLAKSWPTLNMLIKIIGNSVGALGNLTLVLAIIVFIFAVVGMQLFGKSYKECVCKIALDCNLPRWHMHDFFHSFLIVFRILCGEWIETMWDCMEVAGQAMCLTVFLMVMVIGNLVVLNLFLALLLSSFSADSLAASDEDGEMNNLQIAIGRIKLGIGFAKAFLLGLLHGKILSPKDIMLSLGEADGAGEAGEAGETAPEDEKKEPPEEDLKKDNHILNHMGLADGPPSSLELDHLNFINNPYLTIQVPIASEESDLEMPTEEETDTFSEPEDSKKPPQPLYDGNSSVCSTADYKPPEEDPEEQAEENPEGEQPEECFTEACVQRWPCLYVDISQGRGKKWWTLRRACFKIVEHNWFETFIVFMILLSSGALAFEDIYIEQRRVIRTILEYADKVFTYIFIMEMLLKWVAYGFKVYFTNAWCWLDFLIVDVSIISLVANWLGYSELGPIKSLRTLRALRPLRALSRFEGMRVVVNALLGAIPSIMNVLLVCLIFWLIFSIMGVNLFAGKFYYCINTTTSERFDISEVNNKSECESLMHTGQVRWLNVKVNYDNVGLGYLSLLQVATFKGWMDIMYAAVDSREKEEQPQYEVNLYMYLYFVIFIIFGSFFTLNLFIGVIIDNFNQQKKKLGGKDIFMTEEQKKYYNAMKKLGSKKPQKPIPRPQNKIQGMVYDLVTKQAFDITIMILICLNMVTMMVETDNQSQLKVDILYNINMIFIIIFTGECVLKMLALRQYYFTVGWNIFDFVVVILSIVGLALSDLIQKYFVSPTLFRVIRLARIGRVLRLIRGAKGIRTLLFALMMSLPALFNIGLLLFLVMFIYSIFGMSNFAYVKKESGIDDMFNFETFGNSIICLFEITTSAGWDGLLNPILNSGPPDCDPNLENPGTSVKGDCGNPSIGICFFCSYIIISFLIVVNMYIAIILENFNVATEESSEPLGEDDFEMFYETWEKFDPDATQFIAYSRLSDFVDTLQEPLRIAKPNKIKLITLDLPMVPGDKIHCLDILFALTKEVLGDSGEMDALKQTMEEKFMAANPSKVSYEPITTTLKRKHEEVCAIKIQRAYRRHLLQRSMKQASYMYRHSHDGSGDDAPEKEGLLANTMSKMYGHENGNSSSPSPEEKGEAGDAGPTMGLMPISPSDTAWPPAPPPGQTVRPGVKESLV
row,Structure (SMILES),inhibition at 30 µM [%]
1,CS(=N)(=O)c1cccc(NC(=O)c2cc(C(F)(F)F)cnc2Oc2ccc(F)cc2Cl)c1 (stereo not given),< 25

# Target: Nav1.5 (sodium channel protein type 5 subunit alpha) (Homo sapiens, UniProt Q14524)
# Test: Inhibition of Nav1.5 (unknown origin) at 30 uM relative to control
# Type: toxicity
# Settings: not given
row,Structure (SMILES),inhibition at 30 µM [%]
1,CS(=N)(=O)c1cccc(NC(=O)c2cc(C(F)(F)F)cnc2Oc2ccc(F)cc2Cl)c1 (stereo not given),< 25

# Target: Nav1.6 (sodium channel protein type 8 subunit alpha) (Homo sapiens, UniProt Q9UQD0)
# Test: Inhibition of Nav1.6 (unknown origin) at 30 uM relative to control
# Type: toxicity
# Settings: not given
row,Structure (SMILES),inhibition at 30 µM [%]
1,CS(=N)(=O)c1cccc(NC(=O)c2cc(C(F)(F)F)cnc2Oc2ccc(F)cc2Cl)c1 (stereo not given),< 25

# Target: Nav1.7 (sodium channel protein type 9 subunit alpha) (Homo sapiens, UniProt Q15858)
# Test: Inhibition of Nav1.7 (unknown origin) at 30 uM relative to control
# Type: toxicity
# Settings: not given
row,Structure (SMILES),inhibition at 30 µM [%]
1,CS(=N)(=O)c1cccc(NC(=O)c2cc(C(F)(F)F)cnc2Oc2ccc(F)cc2Cl)c1 (stereo not given),< 25

# Target: T1, Sodium channel protein type 10 subunit alpha
# Test: Inhibition of human Nav1.8 with resting membrane potential by PatchXpress high-throughput electrophysiology method
# Settings: not given
# Target sequence in this assay (Q9Y5Y9 whole entry): as the sequence (Q9Y5Y9 whole entry) above
row,IC50 [nM],Structure (SMILES)
1,43,CS(=N)(=O)c1cccc(NC(=O)c2cc(C(F)(F)F)cnc2Oc2ccc(F)cc2Cl)c1 (stereo not given)

# Target: T1, Sodium channel protein type 10 subunit alpha
# Test: Inhibition of Nav1.8 (unknown origin) over expressed in HEK cells exposed to 1st depolarizing pulse at 10 Hz train of action potential at 12 nM
# Type: cell-based
# Settings: not given
# Target sequence in this assay (Q9Y5Y9 whole entry, looked up): as the sequence (Q9Y5Y9 whole entry) above
row,inhibition [%],Structure (SMILES)
1,25.4,CS(=N)(=O)c1cccc(NC(=O)c2cc(C(F)(F)F)cnc2Oc2ccc(F)cc2Cl)c1 (stereo not given)

# Target: T1, Sodium channel protein type 10 subunit alpha
# Test: Inhibition of Nav1.8 (unknown origin) over expressed in HEK cells exposed to 120th depolarizing pulse at 10 Hz train of action potential at 12 nM
# Type: cell-based
# Settings: not given
# Target sequence in this assay (Q9Y5Y9 whole entry, looked up): as the sequence (Q9Y5Y9 whole entry) above
row,inhibition [%],Structure (SMILES)
1,24.9,CS(=N)(=O)c1cccc(NC(=O)c2cc(C(F)(F)F)cnc2Oc2ccc(F)cc2Cl)c1 (stereo not given)

# Tested on: not listed separately
# Test: Inhibition of Nav1.5 (domain 1 and 2)-Nav 1.8 (domain 3 and 4) chimera (unknown origin) with resting membrane potential at half inactivated state by PatchXpress high-throughput electrophysiology method
# Design: species or system Homo sapiens
# Settings: not given
row,Structure (SMILES),IC50 [nM]
1,CS(=N)(=O)c1cccc(NC(=O)c2cc(C(F)(F)F)cnc2Oc2ccc(F)cc2Cl)c1 (stereo not given),9310
